According to ChEMBL document CHEMBL1149623, “Identification of antibacterial and antiviral activities of novel fused 1,2,4-triazine esters” (2007):

Tests used:
Format in all cases: functional
Streptococcus pyogenes [1] = experiment: Antibacterial activity against Streptococcus pyogenes at 100 mg/mL after 24 hrs by disc diffusion method
Staphylococcus aureus [2] = experiment: Antibacterial activity against Staphylococcus aureus ATCC 25923 at 100 mg/mL after 24 hrs by disc diffusion method
Escherichia coli [3] = experiment: Antibacterial activity against Escherichia coli ATCC 25922 at 100 mg/mL after 24 hrs by disc diffusion method
[4] = test system: Staphylococcus epidermidis; experiment: Antibacterial activity against Staphylococcus epidermidis at 100 mg/mL after 24 hrs by disc diffusion method
Escherichia coli [5] = experiment: Antibacterial activity against Escherichia coli ATCC 25922 at 200 mg/mL after 24 hrs by disc diffusion method
[6] = test system: Staphylococcus epidermidis; experiment: Antibacterial activity against Staphylococcus epidermidis at 200 mg/mL after 24 hrs by disc diffusion method
Staphylococcus aureus [7] = experiment: Antibacterial activity against Staphylococcus aureus ATCC 25923 at 200 mg/mL after 24 hrs by disc diffusion method
Streptococcus pyogenes [8] = experiment: Antibacterial activity against Streptococcus pyogenes at 200 mg/mL after 24 hrs by disc diffusion method

| SMILES | Inhibition (Streptococcus pyogenes [1]) [mm] | Inhibition (Staphylococcus aureus [2]) [mm] | Inhibition (Escherichia coli [3]) [mm] | Inhibition [4] [mm] | Inhibition (Escherichia coli [5]) [mm] | Inhibition [6] [mm] | Inhibition (Staphylococcus aureus [7]) [mm] | Inhibition (Streptococcus pyogenes [8]) [mm] |
| --- | --- | --- | --- | --- | --- | --- | --- | --- |
| COC(=O)CC1NN=C2N(CCN2c2ccc(Cl)cc2)C1=O (centres undefined) | 16 | 10 | <9 | 16 | – | – | – | – |
| CCOC(=O)CC1NN=C2N(CCN2c2ccc(OC)cc2)C1=O (centres undefined) | >20 | <9 | 16 | <9 | – | – | – | – |
| CCOC(=O)CC1NN=C2N(CCN2c2cccc(Cl)c2)C1=O (centres undefined) | >20 | 10 | >20 | <9 | – | – | – | – |
| COC(=O)CC1NN=C2N(CCN2c2ccccc2)C1=O (centres undefined) | >20 | 10 | <9 | 16 | – | – | – | – |
| COC(=O)CC1NN=C2N(CCN2c2ccc(OC)cc2)C1=O (centres undefined) | >20 | 10 | >20 | 16 | – | – | – | – |
| CC1(C)S[C@@H]2[C@H](NC(=O)[C@H](N)c3ccccc3)C(=O)N2[C@H]1C(=O)O [AMPICILLIN] | – | – | – | – | 16 | 10 | 16 | 16 |
